Data on 13 compounds can be found in PubChem BioAssay (NCI).

Common to all, as to test: NCI-60 cell line screen, 48 h
In assay [1] the test system is 786-0 renal.
Assay [2] concerns KM12 colon.
For assay [3], the system named is UACC-257 melanoma.
The subject of assay [4] is BT-549 breast.
The test system of assay [5] is RXF 393 renal.
Assay [6] concerns M14 melanoma.
The subject of assay [7] is A498 renal.
Assay [8] deals with OVCAR-8 ovarian.
Assay [9] relates to UACC-62 melanoma.
For assay [10], the system named is U251 CNS.
Assay [11] has as its system SR leukemia.

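Exposure lasted 48 hours, with cells grown in 96-well plates and compounds tested at five concentrations. The concentration for full growth arrest is given as TGI.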

For the compound `Brc1cccc(C2(CCCC3(c4cccc(Br)n4)OCCO3)OCCO2)n1`, the TGI in assay [1], in assay [2], in assay [3], in [4], in assay [5] and in assay [6] was > 100 µM throughout. The TGI in [7] was > 100 µM.

Consider `Cc1cccc2c(N)c3cccc(C(=O)NCC[N+](C)(C)Cc4sc(N5CCOCC5)nc4[N+](=O)[O-])c3nc12`, for which the TGI is 17.4 µM in assay [8]; 18.6 µM in [9]; > 100 µM in [10]; 6.24 µM in assay [1]; 17.6 µM in [2]; 43 µM in [3]. In addition, the TGI in assay [4] came out at 40.8 µM; in assay [5] it was 20.8 µM; in assay [6] it was 15 µM; in [7] it was 37.3 µM.

On to `CC1NOC(NS(=O)(=O)c2ccc(N=Nc3c(O)c(C(=O)O)cc4ccccc34)cc2)C1C` (stereo unspecified), for which the TGI in assay [8], in [9], in [10], in [1], in assay [11] and in assay [2] was > 100 µM throughout. For the same compound, the TGI in assay [3], in assay [4], in assay [5] and in assay [6] was > 100 µM in each case.

For the compound `Cc1ccccc1NC(=S)N=Nc1c(O)[nH]c2ccccc12`, the TGI in assay [8], in [9], in assay [10], in assay [1], in assay [11] and in assay [2] was > 100 µM throughout. The TGI in [3], in [5], in assay [6] and in [7] was > 100 µM in each case.

For `Cc1cc2nc3n(c2cc1C)C(c1c(F)cccc1F)SC3` (stereo unspecified), the TGI in [8] was > 100 µM; in [9], > 10 µM; in assay [10], 32.3 µM; in [1] it was 43.4 µM; in [11], 42.9 µM; in assay [2], > 10 µM. Further, the TGI is > 100 µM in assay [3], 43.7 µM in assay [4], 38.8 µM in assay [5] and 40.8 µM in assay [6].

Turning to `O=[N+]([O-])c1cccc2nc3ccccc3c(NCCC[N+]3([O-])CCCCC3)c12`, the TGI worked out at 13.6 µM in [8]; 0.805 µM in assay [9]; 1.24 µM in [10]; 3.34 µM in [1]; 2.07 µM in [2]; 0.55 µM in [3]. For the same compound, the TGI in [4] was 1.53 µM; in [5], 2 µM; in assay [6], 2.95 µM; in [7], 2.47 µM.

Regarding `Oc1[nH]c2ccccc2c1N=NC(=S)N1CCCCCC1`, the TGI turned out to be 2.67 µM in assay [8]; 2.5 µM in assay [9]; 8.16 µM in assay [10]; 2.63 µM in assay [1]; 3.44 µM in assay [11]; 2.22 µM in assay [2]. Further, the TGI was determined as 5.88 µM in assay [3], 2.43 µM in [5], 2.52 µM in assay [6] and 2.3 µM in assay [7].

`Sc1nnc(-c2ccccc2Nc2ccccc2-c2nnc(S)n2-c2ccccc2)n1-c1ccccc1`: the TGI in assay [8], in assay [9], in assay [10], in [1], in assay [11] and in [2] was > 100 µM throughout. Moreover, the TGI in assay [3], in assay [4], in [5] and in [6] was > 100 µM throughout.

Consider `c1ccc([C@H]2CN3CCSC3=N2)cc1`, for which the TGI in assay [8], in assay [9], in assay [10], in [1], in assay [11] and in assay [2] was > 100 µM each time. For the same compound, the TGI in assay [3], in assay [5], in assay [6] and in assay [7] was > 100 µM throughout.

Consider `Cc1cc(S(=O)(=O)O)ccc1N=Nc1ccc(N=Nc2c(O)ccc3ccccc23)c(C)c1`, for which the TGI in assay [8] was > 100 µM; in assay [9] it was > 100 µM; in assay [10] it was > 100 µM; in [1], 61.3 µM; in [2], 83.3 µM; in [3] it was > 100 µM. Besides, the TGI in assay [4], in [5] and in assay [6] was > 100 µM throughout.

For the compound `CC(O)(c1ccccc1)c1nccc2ccccc12` (stereo unspecified), the TGI in assay [8], in assay [9], in assay [10], in assay [1], in assay [2] and in [3] was > 100 µM in each case. For the same compound, the TGI in assay [4], in assay [5], in assay [6] and in [7] was > 100 µM in each case.

Consider `C=CCC1NCCC2=C1C(S(=O)(=O)c1ccc(C)cc1)c1ccccc12` (stereo unspecified), for which the TGI stood at 30.5 µM in assay [8]; 24.6 µM in [9]; 24 µM in [10]; 25.7 µM in assay [1]; 38.4 µM in assay [11]; 22.6 µM in assay [2]. Besides, the TGI in assay [3] is > 53.4 µM; in assay [5], 17.6 µM; in assay [6], 26.8 µM; in assay [7], 33.2 µM.

`O=C1c2ccccc2C(=O)N1C(=S)c1ccccc1`: the TGI in assay [8], in assay [9], in assay [10], in [1], in assay [11] and in [2] was > 100 µM throughout. For the same compound, the TGI in assay [3], in assay [4], in [5] and in assay [6] was > 100 µM each time.
